Test results published in BigSolDB 2.1.

CC1(C)O[C@H]2CC(=O)OC[C@]23[C@H]2CC[C@@]4(C)[C@H](c5ccoc5)OC(=O)[C@H]5O[C@]54[C@]2(C)C(=O)C[C@@H]13
solubility (mole fraction)
Conditions | 283.2 K | 288.2 K | 293.2 K | 298.2 K | 303.2 K | 308.2 K | 313.2 K | 318.2 K | 323.2 K
in THF | 0.00242 | 0.00257 | 0.0028 | 0.00309 | 0.00327 | 0.0035 | 0.00408 | 0.00458 | 0.00486
in acetonitrile | 0.00272 | 0.00314 | 0.00349 | 0.00385 | 0.00454 | 0.00523 | 0.00628 | 0.00739 | 0.00857
in chloroform | 0.00425 | 0.00433 | 0.00447 | 0.00458 | 0.00479 | 0.00512 | 0.00531 | 0.0057 | 0.00599
in ethanol | 2.65e-05 | 2.93e-05 | 3.05e-05 | 3.53e-05 | 4.27e-05 | 5.48e-05 | 6.71e-05 | 8.49e-05 | 0.000101
in ethyl acetate | 0.000746 | 0.000761 | 0.000801 | 0.00085 | 0.00094 | 0.000979 | 0.00101 | 0.00119 | 0.00128
in isopropanol | 1.08e-05 | 1.25e-05 | 1.56e-05 | 1.79e-05 | 1.87e-05 | 2.25e-05 | 3.03e-05 | 3.47e-05 | 4.52e-05
in n-butanol | 1.53e-05 | 1.94e-05 | 2.01e-05 | 2.64e-05 | 2.91e-05 | 3.54e-05 | 4.23e-05 | 5.62e-05 | 7.25e-05
in n-butyl acetate | 0.000323 | 0.000349 | 0.000375 | 0.000413 | 0.000484 | 0.00053 | 0.000616 | 0.000646 | 0.00068
